In general, bioavailability refers to dose-corrected exposure relative to a reference, in per cent. A higher bioavailability goes with much systemic uptake. As a reminder, the Tmax is the time from dosing to the highest level. Usually half-life stands for the time needed for the level to fall by half in the phase considered. The term AUC denotes concentration integrated over time. Low values mean low exposure, high ones high exposure. One may read the Cmax as the highest concentration seen after dosing.

These results are taken from patent US8592446B2, “[1,10]-phenanthroline derivatives for the treatment of neurodegenerative or haematological diseases” (Noscira, S.A., priority 2007, dated 2013).

Like-named read-outs stand apart in the source and are kept apart here.

A short description of data set [1]: Chelating ability with Fe (III) (absorbance spectra). Format: physicochemical. The note with it: PBS 10 mM, pH 7.4, ligand and Fe(III) 200 μM, FIG. 1. The procedure:
FIG. 1 is an absorbance spectrum of compounds 4, 7, 8 and 10 in absence and presence of Fe(III). PBS 10 mM, pH 7.4. Concentration of ligand and Fe(III), 200 μM.
Only one line is observed, as the spectra are overlapping (see FIG. 1).

The nature of data set [2]: Screening pharmacokinetic study, plasma and brain (LC-MS/MS). The note with it: mice; for Kp: brain and plasma. Format: in vivo, mice (C57BL6/J). The procedure: The objective of this study is to evaluate the oral bioavailability and the plasmatic and brain pharmacokinetic parameters after oral and intravenous administration, thus determining if compounds of formula (I) are able to cross the blood brain barrier (BBB). […] Each compound was solved in appropriate excipients. In the case of oral administration, compound was administered by means of an oral gavage coupled to a syringe. In the intravenous administration animals, the test item was administered by a single injection with a syringe coupled to a 30 G needle.
Two animals were sacrificed (according to internal SOPs and following animal handling and welfare guidelines) at each selected extraction times (i.e. 30 min, 1 h, 2 h, 4 h, 6 h, 8 h and 24 hours after administration), and from each animal, both brain and blood samples were obtained. Plasma was extracted by centrifugation of the blood samples. Each sample time represents two male mice from which samples were obtained.
The method for the analysis of plasma and brain samples involved isolation of the analyte from the biological matrix by protein precipitation or solid-phase extraction followed by analysis using LC-MS/MS. Limits of quantification for these compounds were in the order of 2-10 ng/mL. The software Winnonlin professional version 5.2 was used for the calculation of pharmacokinetic parameters.
In the following tables, the abbreviations have the meaning indicated below: • AUC=Area under the curve • T1/2=Half-life • Tmax=the time after administration of a drug when the maximum plasma concentration is reached; when the rate of absorption equals the rate of elimination • Cmax=maximum plasma concentration of the drug • V. Adm. and Vol. Adm.=volume of administration

Data set [3] has as its system SH-SY5Y human neuroblastoma cells. Kind of data set: Protection against 6-OHDA-induced cell death, condition A (10% foetal bovine serum). The note with it: preincubated 2 hours, 6-OHDA 75 μM 16 hours, read-out: Protect. 6-OHDA (+ FBS) (minimum concentration with neuroprotective effect). Format: cell-based.
A short description of data set [4]: Chelating ability with Cu (II) (absorbance spectra). The class given is physicochemical. Conditions: 200 μM, PBS 10 mM, pH 7.4, FIG. 6. On the procedure: FIG. 6 depicts the absorbance spectra of the mixture of Cu (II) and each of the quelating ligands (Compound 4, Compound 7, Compound 8). Concentration of Cu(II) and all compounds 200 μM, PBS 10 mM, pH 7.4.
FIG. 7 is the absorbance spectra of the complex Cu(II)-Compound 10. Concentration 200 μM, PBS 10 mM, pH 7.4.
Therefore, it may be observed that the compounds of formula (I) have a high affinity to Fe (II) in comparison to the rest of metalic ions tested.

In another data set the test system is SH-SY5Y cells. Kind of data set: Neuroprotection against Aβ25-35 toxicity (LDH assay). Format: cell-based. Conditions: Homo sapiens, pre-treated 1 hour, 200 μM Aβ25-35 24 hours, read-out: Protect. beta-Amyloid25-35 (minimum concentration showing neuroprotection).
The mark [5] stands for this setting: male, C57BL6/J, mouse, 20 mg/kg oral route, brain.
Setting [6] is: male, C57BL6/J, mouse, 20 mg/kg oral route, plasma.
[7] abbreviates: male, C57BL6/J, mouse, intravenous route, group 1-2 mg/kg (Compound 4, 8: 1.00; 7: 1.20; 10: 2.00 mg/Kg), brain.
The mark [8] stands for this setting: male, C57BL6/J, mouse, intravenous route, group 1-2 mg/kg (Compound 4, 8: 1.00; 7: 1.20; 10: 2.00 mg/Kg), plasma.

For `COCCOc1cc(/C=N/O)nc2c1ccc1cccnc12` [Compound 8, 4-(2-Methoxy-ethoxy)-[1,10]phenanthroline-2-carbaldehyde oxime], the “Ability to complex Fe (III) (change in absorbance spectra)” value in data set [1] was “no change in the absorbance spectra”. For the same compound, the Kp was 0.0439 in data set [2] (male, C57BL6/J, mouse, iv, brain AUC relative to plasma AUC, intravenous route, group 1-2 mg/kg, read-out: % AUC); 0.0524 in data set [2] (male, C57BL6/J, mouse, iv, brain Cmax relative to plasma Cmax, intravenous route, group 1-2 mg/kg, read-out: % Cmax); 0.0418 in data set [2] (male, C57BL6/J, mouse, po, 20 mg/kg, brain AUC relative to plasma AUC, 20 mg/kg oral route, read-out: % AUC); 0.0621 in data set [2] (male, C57BL6/J, mouse, po, 20 mg/kg, brain Cmax relative to plasma Cmax, 20 mg/kg oral route, read-out: % Cmax). The bioavailability in data set [2] (male, C57BL6/J, mouse, plasma, 20 mg/kg oral route (low dose)) stood at 6.67%. The Tmax in data set [2] (setting [5]), in data set [2] (setting [6]), in data set [2] (setting [7]) and in data set [2] (setting [8]) was 15 min throughout. The half-life in data set [2] (setting [5]) is 108 min; in data set [2] (setting [6]), 234 min; in data set [2] (setting [7]), 10.8 min; in data set [2] (setting [8]), 66.6 min. Further, the AUC in data set [2] (setting [6]) was determined as 325 ng·h/mL; in data set [2] (setting [8]), 244 ng·h/mL. In addition, the Cmax in data set [2] (setting [6]) turned out to be 396 ng/mL; in data set [2] (setting [8]), 690 ng/mL. Moreover, the “Cmax Brain” value in data set [2] (20 mg/kg oral route, brain) was 24.60 ng/g; in data set [2] (intravenous route, group 1-2 mg/kg (Compound 4, 8: 1.00; 7: 1.20; 10: 2.00 mg/Kg), brain), 36.10 ng/g. Also, the minimal effective concentration in data set [3] was 0.05 µM; in the data set on SH-SY5Y cells, 0.5 µM. Also, in data set [4], the “Ability to complex Cu (II) (spectrum of mixture vs sum of individual spectra)” value is given as “none of the ligands are able to complex the Cu (II)”.
